This passage reports TGI results from PubChem BioAssay (NCI).

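Five compound concentrations were applied to cells in 96-well plates for 48 hours; endpoints were derived by simple linear interpolation of the resulting dose-response curve. TGI marks complete inhibition of growth.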

In the first assay the test system is K-562 leukemia. Kind of assay: NCI anticancer screen, dose series, 48 h.
The compound `Cc1cc(C)c(-n2[nH]c(=O)n(C)c2=O)c(C)c1` registered a TGI above 100 µM.
`CC1=NC(=Cc2cccc(Cl)c2)C(=O)N1n1c(-c2ccccc2)nc2ccccc2c1=O` showed a TGI above 100 µM.

The next assay has as its system MCF7 breast. Put plainly: NCI anticancer screen, dose series, 48 h.
With `COC(=O)[C@@H]1[C@H](OC(C)=O)CCC2[C@@]3(C[C@@H](c4ccoc4)O[C@@H]3OC)[C@H](C)CC[C@]21C(=O)OC` (stereo partly specified), the TGI was above 25 µM.
`CC(C)(C)OC(=O)NC(Cc1ccccc1)OCc1ccccc1` (stereo unspecified): the TGI amounted to 35.9 µM.
Turning to `COc1cc2c3c(c1)CCCN3CCC2`, the TGI is above 10 µM.
For `Cc1ccc(NC(Nc2ccc(C)cc2C)=C(/C=C(\Cl)[N+](=O)[O-])[N+](=O)[O-])c(C)c1`, the TGI was 12.4 µM.
Turning to `CC1(/C=C/CCSc2ccccc2)CC(=O)C2CC1C2(C)C` (stereo unspecified), the TGI was above 100 µM.
With `COc1cc(/C=C/c2nc(NC(=S)Nc3ccccc3)nnc2C)cc(OC)c1OC`, the TGI was above 100 µM.
As to `CC1(C)C=Cc2c(cc(O)c3c(=O)c4cc(Cl)ccc4[nH]c23)O1`, the TGI was above 10 µM.
`CC(=O)c1ccc2c(c1)CC1(C2)Cc2cc3c(cc2C1=O)CCC3` (stereo unspecified) came in with a TGI of 43.8 µM.
Regarding `CCc1nn(CN2CCOCC2)c(=S)n1/N=C/c1ccc(-c2ccc(Cl)cc2)o1`, the TGI is above 100 µM.
On to `COc1cc(C2SCC(=O)N2c2cccc(Cl)c2)cc(OC)c1OC` (stereo unspecified), for which the TGI is above 100 µM.
In turn, `CS(=O)(=O)OCC1CN(S(C)(=O)=O)c2cc(O)ccc21` (stereo unspecified) showed a TGI of 26.2 µM.
With `CCOC(=O)C1=NOC2(C=C(Br)C(=O)C(Br)=C2)C1`, the TGI came out at 11.1 µM.
Still for that read-out and setting: with `Oc1ccc(-c2cc(-c3cc(-c4ccc(O)cc4)no3)on2)cc1` the figure was above 100 µM.
Compound `O=c1[nH]cc(-c2c[nH]c3ccccc23)nc1-c1c[nH]c2ccccc12` returned a TGI of 54.7 µM.
The same measure, in the same setting: with `Nc1n[n+](CC(=O)c2ccccc2)c2sc(-c3ccccc3)nn12` the figure was above 100 µM.
The compound `CCOC(=O)c1c(C)nc2c1c(CN(C)C)c(O)c1[nH]c(C)c(C)nc12` had a TGI of 52.1 µM.
In the case of `Cc1cc(C)c(-n2[nH]c(=O)n(C)c2=O)c(C)c1`, the TGI is above 100 µM.
With `CC1=NC(=Cc2cccc(Cl)c2)C(=O)N1n1c(-c2ccccc2)nc2ccccc2c1=O`, the TGI stood at 55.3 µM.

The test system of another assay is MDA-MB-435. Put plainly: NCI anticancer screen, dose series, 48 h.
`COC(=O)[C@@H]1[C@H](OC(C)=O)CCC2[C@@]3(C[C@@H](c4ccoc4)O[C@@H]3OC)[C@H](C)CC[C@]21C(=O)OC` (stereo partly specified) showed a TGI above 25 µM.
`CC(C)(C)OC(=O)NC(Cc1ccccc1)OCc1ccccc1` (stereo unspecified) yielded a TGI of 42.7 µM.
Turning to `COc1cc2c3c(c1)CCCN3CCC2`, the TGI was above 10 µM.
The compound `Cc1ccc(NC(Nc2ccc(C)cc2C)=C(/C=C(\Cl)[N+](=O)[O-])[N+](=O)[O-])c(C)c1` showed a TGI of 7.98 µM.
Still for that read-out and setting: with `CC1(/C=C/CCSc2ccccc2)CC(=O)C2CC1C2(C)C` (stereo unspecified) the figure was above 87.6 µM; with `COc1cc(/C=C/c2nc(NC(=S)Nc3ccccc3)nnc2C)cc(OC)c1OC`, above 100 µM.
Turning to `CC1(C)C=Cc2c(cc(O)c3c(=O)c4cc(Cl)ccc4[nH]c23)O1`, the TGI was above 10 µM.
In turn, `CC(=O)c1ccc2c(c1)CC1(C2)Cc2cc3c(cc2C1=O)CCC3` (stereo unspecified) registered a TGI of 32.4 µM.
Turning to `CCc1nn(CN2CCOCC2)c(=S)n1/N=C/c1ccc(-c2ccc(Cl)cc2)o1`, the TGI was above 100 µM.
In turn, `COc1cc(C2SCC(=O)N2c2cccc(Cl)c2)cc(OC)c1OC` (stereo unspecified) yielded a TGI above 100 µM.
`CS(=O)(=O)OCC1CN(S(C)(=O)=O)c2cc(O)ccc21` (stereo unspecified) showed a TGI of 4.07 µM.
Still for that read-out and setting: with `CCOC(=O)C1=NOC2(C=C(Br)C(=O)C(Br)=C2)C1` the figure was 3.49 µM.
With `Oc1ccc(-c2cc(-c3cc(-c4ccc(O)cc4)no3)on2)cc1`, the TGI is above 100 µM.
As to `O=c1[nH]cc(-c2c[nH]c3ccccc23)nc1-c1c[nH]c2ccccc12`, the TGI came to 14 µM.
Take `Nc1n[n+](CC(=O)c2ccccc2)c2sc(-c3ccccc3)nn12`: the TGI was above 100 µM.
Turning to `CCOC(=O)c1c(C)nc2c1c(CN(C)C)c(O)c1[nH]c(C)c(C)nc12`, the TGI is 99.7 µM.
Regarding `Cc1cc(C)c(-n2[nH]c(=O)n(C)c2=O)c(C)c1`, the TGI is above 100 µM.
`CC1=NC(=Cc2cccc(Cl)c2)C(=O)N1n1c(-c2ccccc2)nc2ccccc2c1=O`: the TGI was above 100 µM.

A further assay concerns MDA-N. Put plainly: NCI anticancer screen, dose series, 48 h.
`COC(=O)[C@@H]1[C@H](OC(C)=O)CCC2[C@@]3(C[C@@H](c4ccoc4)O[C@@H]3OC)[C@H](C)CC[C@]21C(=O)OC` (stereo partly specified) gave a TGI above 25 µM.
Still for that read-out and setting: with `CC(C)(C)OC(=O)NC(Cc1ccccc1)OCc1ccccc1` (stereo unspecified) the figure was 38.1 µM.
With `COc1cc2c3c(c1)CCCN3CCC2`, the TGI is above 10 µM.
`Cc1ccc(NC(Nc2ccc(C)cc2C)=C(/C=C(\Cl)[N+](=O)[O-])[N+](=O)[O-])c(C)c1` gave a TGI of 10.9 µM.
For the compound `CC1(/C=C/CCSc2ccccc2)CC(=O)C2CC1C2(C)C` (stereo unspecified), the TGI is above 100 µM.
Take `COc1cc(/C=C/c2nc(NC(=S)Nc3ccccc3)nnc2C)cc(OC)c1OC`: the TGI was above 100 µM.
The compound `CC1(C)C=Cc2c(cc(O)c3c(=O)c4cc(Cl)ccc4[nH]c23)O1` returned a TGI of 8.58 µM.
`CC(=O)c1ccc2c(c1)CC1(C2)Cc2cc3c(cc2C1=O)CCC3` (stereo unspecified) showed a TGI of 32.9 µM.
Take `CCc1nn(CN2CCOCC2)c(=S)n1/N=C/c1ccc(-c2ccc(Cl)cc2)o1`: the TGI is above 100 µM.
The same measure, in the same setting: for `COc1cc(C2SCC(=O)N2c2cccc(Cl)c2)cc(OC)c1OC` (stereo unspecified) the value was 43 µM; for `CS(=O)(=O)OCC1CN(S(C)(=O)=O)c2cc(O)ccc21` (stereo unspecified), 4.52 µM; for `CCOC(=O)C1=NOC2(C=C(Br)C(=O)C(Br)=C2)C1`, 3.39 µM.
On the same count and under the same terms, with `Oc1ccc(-c2cc(-c3cc(-c4ccc(O)cc4)no3)on2)cc1` the figure was above 100 µM.
For `O=c1[nH]cc(-c2c[nH]c3ccccc23)nc1-c1c[nH]c2ccccc12`, the TGI worked out at 9.44 µM.
For the compound `Nc1n[n+](CC(=O)c2ccccc2)c2sc(-c3ccccc3)nn12`, the TGI is above 100 µM.
The compound `CCOC(=O)c1c(C)nc2c1c(CN(C)C)c(O)c1[nH]c(C)c(C)nc12` gave a TGI of 54.7 µM.
On to `Cc1cc(C)c(-n2[nH]c(=O)n(C)c2=O)c(C)c1`, for which the TGI is above 100 µM.
For `CC1=NC(=Cc2cccc(Cl)c2)C(=O)N1n1c(-c2ccccc2)nc2ccccc2c1=O`, the TGI was above 100 µM.

The test system of a further assay is NCI-H226 lung. Put plainly: NCI anticancer screen, dose series, 48 h.
Regarding `COC(=O)[C@@H]1[C@H](OC(C)=O)CCC2[C@@]3(C[C@@H](c4ccoc4)O[C@@H]3OC)[C@H](C)CC[C@]21C(=O)OC` (stereo partly specified), the TGI is above 25 µM.
Regarding `CC(C)(C)OC(=O)NC(Cc1ccccc1)OCc1ccccc1` (stereo unspecified), the TGI stood at 34.4 µM.
The same measure, in the same setting: for `COc1cc2c3c(c1)CCCN3CCC2` the value was above 10 µM.
Take `Cc1ccc(NC(Nc2ccc(C)cc2C)=C(/C=C(\Cl)[N+](=O)[O-])[N+](=O)[O-])c(C)c1`: the TGI amounted to 22.1 µM.
In the case of `CC1(/C=C/CCSc2ccccc2)CC(=O)C2CC1C2(C)C` (stereo unspecified), the TGI was above 100 µM.
`COc1cc(/C=C/c2nc(NC(=S)Nc3ccccc3)nnc2C)cc(OC)c1OC` yielded a TGI of 81.4 µM.
`CCc1nn(CN2CCOCC2)c(=S)n1/N=C/c1ccc(-c2ccc(Cl)cc2)o1` showed a TGI above 100 µM.
`COc1cc(C2SCC(=O)N2c2cccc(Cl)c2)cc(OC)c1OC` (stereo unspecified): the TGI was above 100 µM.
In turn, `CS(=O)(=O)OCC1CN(S(C)(=O)=O)c2cc(O)ccc21` (stereo unspecified) yielded a TGI of 12.3 µM.
`CCOC(=O)C1=NOC2(C=C(Br)C(=O)C(Br)=C2)C1`: the TGI worked out at 52.9 µM.
In turn, `Oc1ccc(-c2cc(-c3cc(-c4ccc(O)cc4)no3)on2)cc1` displayed a TGI above 100 µM.
Consider `Nc1n[n+](CC(=O)c2ccccc2)c2sc(-c3ccccc3)nn12`, for which the TGI was above 100 µM.
The compound `CCOC(=O)c1c(C)nc2c1c(CN(C)C)c(O)c1[nH]c(C)c(C)nc12` showed a TGI of 62.1 µM.
Regarding `Cc1cc(C)c(-n2[nH]c(=O)n(C)c2=O)c(C)c1`, the TGI is above 100 µM.
Still for that read-out and setting: with `CC1=NC(=Cc2cccc(Cl)c2)C(=O)N1n1c(-c2ccccc2)nc2ccccc2c1=O` the figure was above 100 µM.
